According to patent publication US20020137929A1, “1 - (3-heterocyclylphenyl) isothiourea, -isourea, -guanidine and -amidine herbicidal agents” (Intellectual Property Department, BASF Aktiengesellschaft, priority 1998, published 2002):

Key:
CASOB (Sicklepod) = experiment: Preemergence herbicidal evaluation; format: in vivo, Cassia obtusifolia; conditions: rated 4-5 weeks after treatment
Procedure, shortened: (§1)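 Sown cups got a single aqueous acetone spray of test compound (roughly 0.0156–0.500 kg/ha) before seedlings emerged. Evaluation, 4–5 weeks on, used a 0–9 visual scale covering plant stand, vigor, size, malformation, chlorosis and general appearance compared with controls.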

[1] = system: SAGPY (Arrowhead (Pygmaea)); experiment: Preemergence weed control under flooded paddy conditions; format: in vivo, Sagittaria pygmaea; conditions: rated 3-4 weeks after treatment
Procedure, shortened: (§2)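 Seeds or propagules sown in silt loam kept flooded 1.5-3 cm; compounds in 50/50 acetone/water pipetted into flood water at about 0.0313 to 0.500 kg/ha. Greenhouse; visual 0-9 rating versus untreated control 3-4 weeks after treatment.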

ECHCG (Barnyardgrass) = experiment: Postemergence herbicidal evaluation; format: in vivo, Echinochloa crus-galli; conditions: postemergence
Procedure, shortened: (§3)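 Two-week seedlings sprayed postemergence at 40 psi; formulation: 1:1 acetone/water, 0.5% TWEEN 20; application ≈0.0156–0.500 kg/ha. Greenhouse grow-out, then 0–9 visual scoring at 4–5 weeks.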

MOOVA (Monochoria) = experiment: Preemergence weed control under flooded paddy conditions; format: in vivo, Monochoria vaginalis; conditions: rated 3-4 weeks after treatment
Procedure, shortened: as §2

AMBEL (Ragweed, Common) = experiment: Postemergence herbicidal evaluation; format: in vivo, Ambrosia artemisifolia; conditions: postemergence
Procedure, shortened: as §3

ABUTH (Velvetleaf) [2] = experiment: Preemergence herbicidal evaluation; format: in vivo, Abutilon theophrasti; conditions: rated 4-5 weeks after treatment
Procedure, shortened: as §1

ORYSAT (Rice, Tebonnet) = experiment: Postemergence herbicidal evaluation; format: in vivo, Oryza sativa, (L.) Tebonnet; conditions: postemergence
Procedure, shortened: as §3

ABUTH (Velvetleaf) [3] = experiment: Postemergence herbicidal evaluation; format: in vivo, Abutilon theophrasti; conditions: postemergence
Procedure, shortened: as §3

SETVI (Foxtail, Green) [4] = experiment: Postemergence herbicidal evaluation; format: in vivo, Setaria viridis; conditions: postemergence
Procedure, shortened: as §3

[5] = system: GLXMAW (Soybean, Williams); experiment: Postemergence herbicidal evaluation; format: in vivo, Glycine max, (L.) Merr. cv Williams; conditions: postemergence
Procedure, shortened: as §3

[6] = system: TRZAWR (Wheat, Winter, cv Riband); experiment: Postemergence herbicidal evaluation; format: in vivo, Triticum aestivum; conditions: postemergence
Procedure, shortened: as §3

SETVI (Foxtail, Green) [7] = experiment: Preemergence herbicidal evaluation; format: in vivo, Setaria viridis; conditions: rated 4-5 weeks after treatment
Procedure, shortened: as §1

CCCCOC(=O)CN1C(=O)CSC1=Nc1cc(-n2c(=O)cc(C(F)(F)F)n(C)c2=O)c(F)cc1Cl [Compound 111]
Preemergence herbicidal rating CASOB (CASOB (Sicklepod); rate 0.0156 kg/ha): 0.0
Preemergence herbicidal rating CASOB (CASOB (Sicklepod); rate 0.0313 kg/ha): 0.0
Preemergence herbicidal rating CASOB (CASOB (Sicklepod); rate 0.0625 kg/ha): 1.0
Preemergence herbicidal rating CASOB (CASOB (Sicklepod); rate 0.1250 kg/ha): 1.0
Preemergence herbicidal rating CASOB (CASOB (Sicklepod); rate 0.2500 kg/ha): 9.0
SAGPY herbicidal effect rating ([1]; 0.0313 kg/ha): 3.0
SAGPY herbicidal effect rating ([1]; 0.0625 kg/ha): 4.0
SAGPY herbicidal effect rating ([1]; 0.1250 kg/ha): 5.0
SAGPY herbicidal effect rating ([1]; 0.2500 kg/ha): 6.0
herbicidal rating ECHCG (ECHCG (Barnyardgrass); rate 0.0158 kg/ha): 3.0
herbicidal rating ECHCG (ECHCG (Barnyardgrass); rate 0.0315 kg/ha): 4.0
herbicidal rating ECHCG (ECHCG (Barnyardgrass); rate 0.0630 kg/ha): 9.0
MOOVA herbicidal effect rating (MOOVA (Monochoria); 0.0313 kg/ha): 3.0
MOOVA herbicidal effect rating (MOOVA (Monochoria); 0.0625 kg/ha): 4.0
MOOVA herbicidal effect rating (MOOVA (Monochoria); 0.1250 kg/ha): 4.0
MOOVA herbicidal effect rating (MOOVA (Monochoria); 0.2500 kg/ha): 4.0
herbicidal rating AMBEL (AMBEL (Ragweed, Common); rate 0.0158 kg/ha): 4.0
herbicidal rating AMBEL (AMBEL (Ragweed, Common); rate 0.0315 kg/ha): 6.0
herbicidal rating AMBEL (AMBEL (Ragweed, Common); rate 0.0630 kg/ha): 9.0
Preemergence herbicidal rating ABUTH (ABUTH (Velvetleaf) [2]; rate 0.0156 kg/ha): 1.0
Preemergence herbicidal rating ABUTH (ABUTH (Velvetleaf) [2]; rate 0.0313 kg/ha): 0.0
Preemergence herbicidal rating ABUTH (ABUTH (Velvetleaf) [2]; rate 0.0625 kg/ha): 2.0
Preemergence herbicidal rating ABUTH (ABUTH (Velvetleaf) [2]; rate 0.1250 kg/ha): 9.0
Preemergence herbicidal rating ABUTH (ABUTH (Velvetleaf) [2]; rate 0.2500 kg/ha): 9.0
herbicidal rating ORYSAT (ORYSAT (Rice, Tebonnet); rate 0.0158 kg/ha): 2.5
herbicidal rating ORYSAT (ORYSAT (Rice, Tebonnet); rate 0.0315 kg/ha): 4.5
herbicidal rating ORYSAT (ORYSAT (Rice, Tebonnet); rate 0.0630 kg/ha): 4.5
herbicidal rating ABUTH (ABUTH (Velvetleaf) [3]; rate 0.0158 kg/ha): 7.0
herbicidal rating ABUTH (ABUTH (Velvetleaf) [3]; rate 0.0315 kg/ha): 9.0
herbicidal rating ABUTH (ABUTH (Velvetleaf) [3]; rate 0.0630 kg/ha): 9.0
herbicidal rating SETVI (SETVI (Foxtail, Green) [4]; rate 0.0158 kg/ha): 1.0
herbicidal rating SETVI (SETVI (Foxtail, Green) [4]; rate 0.0315 kg/ha): 9.0
herbicidal rating SETVI (SETVI (Foxtail, Green) [4]; rate 0.0630 kg/ha): 9.0
herbicidal rating GLXMAW ([5]; rate 0.0158 kg/ha): 6.0
herbicidal rating GLXMAW ([5]; rate 0.0315 kg/ha): 6.0
herbicidal rating GLXMAW ([5]; rate 0.0630 kg/ha): 6.0
herbicidal rating TRZAWR ([6]; rate 0.0158 kg/ha): 2.5
herbicidal rating TRZAWR ([6]; rate 0.0315 kg/ha): 4.5
herbicidal rating TRZAWR ([6]; rate 0.0630 kg/ha): 5.5
Preemergence herbicidal rating SETVI (SETVI (Foxtail, Green) [7]; rate 0.0156 kg/ha): 0.0
Preemergence herbicidal rating SETVI (SETVI (Foxtail, Green) [7]; rate 0.0313 kg/ha): 0.0
Preemergence herbicidal rating SETVI (SETVI (Foxtail, Green) [7]; rate 0.0625 kg/ha): 1.0
Preemergence herbicidal rating SETVI (SETVI (Foxtail, Green) [7]; rate 0.1250 kg/ha): 7.0
Preemergence herbicidal rating SETVI (SETVI (Foxtail, Green) [7]; rate 0.2500 kg/ha): 7.0

Cn1c(C(F)(F)F)cc(=O)n(-c2cc(N=C3SCC(=O)N3Cc3ccco3)c(Cl)cc2F)c1=O [Compound 122, 3-{4-Chloro-2-fluoro-5-[(3-furfuryl-4-oxo-2-thiazolidinylidene)amino]phenyl}-1-methyl-6-(trifluoromethyl)-2,4(1H,3H)-pyrimidinedione]
Preemergence herbicidal rating CASOB (CASOB (Sicklepod); rate 0.0156 kg/ha): 0.0
Preemergence herbicidal rating CASOB (CASOB (Sicklepod); rate 0.0313 kg/ha): 0.0
Preemergence herbicidal rating CASOB (CASOB (Sicklepod); rate 0.0625 kg/ha): 0.0
Preemergence herbicidal rating CASOB (CASOB (Sicklepod); rate 0.1250 kg/ha): 0.0
Preemergence herbicidal rating CASOB (CASOB (Sicklepod); rate 0.2500 kg/ha): 0.0
Preemergence herbicidal rating CASOB (CASOB (Sicklepod); rate 0.5000 kg/ha): 3.0
herbicidal effect rating, SAGPY ([1]; 0.0313 kg/ha): 2.0
herbicidal effect rating, SAGPY ([1]; 0.0625 kg/ha): 3.0
herbicidal effect rating, SAGPY ([1]; 0.1250 kg/ha): 5.0
herbicidal effect rating, SAGPY ([1]; 0.2500 kg/ha): 6.0
herbicidal rating ECHCG (ECHCG (Barnyardgrass); rate 0.0156 kg/ha): 2.0
herbicidal rating ECHCG (ECHCG (Barnyardgrass); rate 0.0313 kg/ha): 3.0
herbicidal rating ECHCG (ECHCG (Barnyardgrass); rate 0.0625 kg/ha): 4.0
herbicidal rating ECHCG (ECHCG (Barnyardgrass); rate 0.1250 kg/ha): 5.0
herbicidal effect rating, MOOVA (MOOVA (Monochoria); 0.0313 kg/ha): 8.0
herbicidal effect rating, MOOVA (MOOVA (Monochoria); 0.0625 kg/ha): 9.0
herbicidal effect rating, MOOVA (MOOVA (Monochoria); 0.1250 kg/ha): 9.0
herbicidal effect rating, MOOVA (MOOVA (Monochoria); 0.2500 kg/ha): 9.0
herbicidal rating AMBEL (AMBEL (Ragweed, Common); rate 0.0156 kg/ha): 7.0
herbicidal rating AMBEL (AMBEL (Ragweed, Common); rate 0.0313 kg/ha): 9.0
herbicidal rating AMBEL (AMBEL (Ragweed, Common); rate 0.0625 kg/ha): 9.0
herbicidal rating AMBEL (AMBEL (Ragweed, Common); rate 0.1250 kg/ha): 9.0
Preemergence herbicidal rating ABUTH (ABUTH (Velvetleaf) [2]; rate 0.0156 kg/ha): 0.0
Preemergence herbicidal rating ABUTH (ABUTH (Velvetleaf) [2]; rate 0.0313 kg/ha): 0.0
Preemergence herbicidal rating ABUTH (ABUTH (Velvetleaf) [2]; rate 0.0625 kg/ha): 4.0
Preemergence herbicidal rating ABUTH (ABUTH (Velvetleaf) [2]; rate 0.1250 kg/ha): 9.0
Preemergence herbicidal rating ABUTH (ABUTH (Velvetleaf) [2]; rate 0.2500 kg/ha): 9.0
Preemergence herbicidal rating ABUTH (ABUTH (Velvetleaf) [2]; rate 0.5000 kg/ha): 9.0
herbicidal rating ORYSAT (ORYSAT (Rice, Tebonnet); rate 0.0156 kg/ha): 3.5
herbicidal rating ORYSAT (ORYSAT (Rice, Tebonnet); rate 0.0313 kg/ha): 3.5
herbicidal rating ORYSAT (ORYSAT (Rice, Tebonnet); rate 0.0625 kg/ha): 3.5
herbicidal rating ORYSAT (ORYSAT (Rice, Tebonnet); rate 0.1250 kg/ha): 5.0
herbicidal rating ABUTH (ABUTH (Velvetleaf) [3]; rate 0.0156 kg/ha): 9.0
herbicidal rating ABUTH (ABUTH (Velvetleaf) [3]; rate 0.0313 kg/ha): 9.0
herbicidal rating ABUTH (ABUTH (Velvetleaf) [3]; rate 0.0625 kg/ha): 9.0
herbicidal rating ABUTH (ABUTH (Velvetleaf) [3]; rate 0.1250 kg/ha): 9.0
herbicidal rating SETVI (SETVI (Foxtail, Green) [4]; rate 0.0156 kg/ha): 6.0
herbicidal rating SETVI (SETVI (Foxtail, Green) [4]; rate 0.0313 kg/ha): 7.0
herbicidal rating SETVI (SETVI (Foxtail, Green) [4]; rate 0.0625 kg/ha): 9.0
herbicidal rating SETVI (SETVI (Foxtail, Green) [4]; rate 0.1250 kg/ha): 9.0
herbicidal rating GLXMAW ([5]; rate 0.0156 kg/ha): 5.5
herbicidal rating GLXMAW ([5]; rate 0.0313 kg/ha): 6.5
herbicidal rating GLXMAW ([5]; rate 0.0625 kg/ha): 6.5
herbicidal rating GLXMAW ([5]; rate 0.1250 kg/ha): 6.5
herbicidal rating TRZAWR ([6]; rate 0.0156 kg/ha): 3.0
herbicidal rating TRZAWR ([6]; rate 0.0313 kg/ha): 3.5
herbicidal rating TRZAWR ([6]; rate 0.0625 kg/ha): 4.5
herbicidal rating TRZAWR ([6]; rate 0.1250 kg/ha): 5.0
Preemergence herbicidal rating SETVI (SETVI (Foxtail, Green) [7]; rate 0.0156 kg/ha): 0.0
Preemergence herbicidal rating SETVI (SETVI (Foxtail, Green) [7]; rate 0.0313 kg/ha): 0.0
Preemergence herbicidal rating SETVI (SETVI (Foxtail, Green) [7]; rate 0.0625 kg/ha): 0.0
Preemergence herbicidal rating SETVI (SETVI (Foxtail, Green) [7]; rate 0.1250 kg/ha): 1.0
Preemergence herbicidal rating SETVI (SETVI (Foxtail, Green) [7]; rate 0.2500 kg/ha): 1.0
Preemergence herbicidal rating SETVI (SETVI (Foxtail, Green) [7]; rate 0.5000 kg/ha): 9.0
